Results reported in article PMC10889688 (2024).

What was measured:
[1] = tested on: rArU (AU homopolynucleotide) (RNA, polymer) A/U; assay: UV thermal melting at 260 nm; settings: Na+ (sodium cacodylate, I = 0.05 mol dm^-3); sodium cacodylate buffer pH 7.0; r = [compound]/[polynucleotide] = 0.1; per base
[2] = tested on: rArU (AU homopolynucleotide) (RNA, polymer) A/U; assay: fluorescence titration, Scatchard equation; settings: Na+ (sodium cacodylate, I = 0.05 mol dm^-3); sodium cacodylate buffer pH 7.0, 25 °C; RNA concentration as phosphates; per base

| Structure (SMILES) | ΔTm [1] | logKa [2] |
| --- | --- | --- |
| CN(C)CCCNc1ccc2cc3cc(C#N)c4nc5ccccc5n4c3nc2c1 | 1.1 ± 0.5 °C | 8.6 |
| N#Cc1cc2cc3ccc(N4CCNCC4)cc3nc2n2c1nc1ccccc12 | 4.9 ± 0.5 °C | 7.9 |
